Where two headings read alike, the source gives them in different places.
Columns and labels:
Format in all cases: cell-based, human
LNCaP = test: 3H thymidine proliferation assay, LNCaP; conditions: 3H thymidine method, 72 h incubation; read-out: EC50, LNCaP
Experimental: (§1) This example generally describes the procedures used to assay the antiproliferative activity of compounds of this invention or their conjugates. Human tumor cell lines were obtained from the American Type Culture Collection (ATCC), P.O. Box 1549, Manassas, Va. 20108, USA, and cultured according to instruction from the ATCC. Cells were seeded at 1.0×10^3 or 1.0×10^4 cells/well in 96-well plates for 3 h for ATP assays or ^3H thymidine assays, respectively. 1:3 serial dilutions of free (unconjugated) compounds or their conjugates were added to the wells. Plates were allowed to incubate for 24 to 72 h. The ^3H thymidine plates were pulsed with 1.0 μCi of ^3H-thymidine per well for the last 24 hours of the total incubation period, harvested, and read on a Top Count Scintillation Counter (Packard Instruments, Meriden, Conn.). ATP levels in the ATP plates were measured using the […]-GLO® Luminescent Cell Viability kit following the manufacturer's manual and read on a GLOMAX® 20/20 luminometer (both from Promega, Madison, Wis., USA). The EC50 values—the concentration at which an agent inhibits or reduces cell proliferation by 50% —were determined using PRISM™ software, version 4.0 (GraphPad Software, La Jolla, Calif., USA).
(§2) Using the ^3H thymidine or the ATP luminescence assay, or both, the activities of compounds of this invention were assayed against the following cancer cell lines: HCT-15 (colorectal cancer, multi-drug resistant (MDR)); Hep3B (liver cancer); LNCaP (prostate cancer, androgen receptor positive (AR^+)); MDA-MB-231 (breast cancer, estrogen receptor, progesterone receptor, and Her2 negative (triple negative)); A2058 (melanoma); U-87 MG (glioblastoma); NCI-H460 (NSCLC); A549 (NSCLC); HPAC (pancreatic cancer, primary); PC3 (prostate cancer, AR); BT474 (breast cancer, Her2 highly positive (Her2hi)); SKOV3 (ovarian cancer, Her2hi); 786-O (renal cancer); UO-31 (renal cancer, MDR); NCI-H740 (SCLC); DMS53 (SCLC); SK-BR3 (breast cancer, Her2hi); ZR-75 (breast cancer, estrogen receptor positive); OVCAR3 (ovarian cancer); HL-60 (APL); OVCAR8/Adr (ovarian cancer, MDR); CEM-Cl (ALL); Nomo-1 (AML); RPMI-8226 (MM)); Raji (lymphoma); SW-480 (colorectal cancer, metastatic); SW-620 (colorectal cancer); and H226 (lung cancer). (Not all compounds were assayed against all cell lines.)
(§3) Table 2 provides the data for proliferation assays using the ^3H thymidine method, with an incubation period of 72 h.

U-87 MG [1] = test: 3H thymidine proliferation assay, U-87 MG; conditions: 3H thymidine method, 72 h incubation; read-out: EC50, U-87 MG
Experimental: as §1, §2, §3

HPAC = test: 3H thymidine proliferation assay, HPAC; conditions: 3H thymidine method, 72 h incubation; read-out: EC50, HPAC
Experimental: as §1, §2, §3

BT474 = test: 3H thymidine proliferation assay, BT474; conditions: 3H thymidine method, 72 h incubation; read-out: EC50, BT474
Experimental: as §1, §2, §3

786-O = test: 3H thymidine proliferation assay, 786-O; conditions: 3H thymidine method, 72 h incubation; read-out: EC50, 786-O
Experimental: as §1, §2, §3

UO-31 = test: 3H thymidine proliferation assay, UO-31; conditions: 3H thymidine method, 72 h incubation; read-out: EC50, UO-31
Experimental: as §1, §2, §3

OVCAR3 = test: 3H thymidine proliferation assay, OVCAR3; conditions: 3H thymidine method, 72 h incubation; read-out: EC50, OVCAR3
Experimental: as §1, §2, §3

HL-60 = test: 3H thymidine proliferation assay, HL-60; conditions: 3H thymidine method, 72 h incubation; read-out: EC50, HL-60
Experimental: as §1, §2, §3

RPMI-8226 = test: 3H thymidine proliferation assay, RPMI-8226; conditions: 3H thymidine method, 72 h incubation; read-out: EC50, RPMI-8226
Experimental: as §1, §2, §3

Raji [2] = test: 3H thymidine proliferation assay, Raji; conditions: 3H thymidine method, 72 h incubation; read-out: EC50, Raji
Experimental: as §1, §2, §3

HCT-15 = test: ATP luminescence proliferation assay, HCT-15; conditions: ATP luminescence
Experimental: as §1, §2
(§4) Table 3 provides the data for the ATP luminescence proliferation assays, with an incubation period of 48, 72, or 96 h, as noted.

MDA-MB-231 = test: ATP luminescence proliferation assay, MDA-MB-231; conditions: ATP luminescence
Experimental: as §1, §2, §4

U-87 MG [3] = test: ATP luminescence proliferation assay, U-87 MG; conditions: ATP luminescence, 72 h incubation, read-out: EC50 U-87 MG (72 h)
Experimental: as §1, §2, §4

DMS53 = test: ATP luminescence proliferation assay, DMS53; conditions: ATP luminescence
Experimental: as §1, §2, §4

SK-BR3 [4] = test: ATP luminescence proliferation assay, SK-BR3; conditions: ATP luminescence
Experimental: as §1, §2, §4

ZR-75 = test: ATP luminescence proliferation assay, ZR-75; conditions: ATP luminescence
Experimental: as §1, §2, §4

Raji [5] = test: ATP luminescence proliferation assay, Raji; conditions: ATP luminescence, 72 h incubation, read-out: EC50 Raji (72 h)
Experimental: as §1, §2, §4

A2058 = test: 3H thymidine proliferation assay, A2058; conditions: 3H thymidine method, 72 h incubation
Experimental: as §1, §2, §3

SK-BR3 [6] = test: 3H thymidine proliferation assay, SK-BR3; conditions: 3H thymidine method, 72 h incubation
Experimental: as §1, §2, §3

SMILES | EC50 (LNCaP) | EC50 (U-87 MG [1]) | EC50 (HPAC) | EC50 (BT474) | EC50 (786-O) | EC50 (UO-31) | EC50 (OVCAR3) | EC50 (HL-60) | EC50 (RPMI-8226) | EC50 (Raji [2]) | EC50 (U-87 MG [3]) | EC50 (Raji [5]) | other results
CC[C@H](C)[C@H](NC(=O)[C@H]1CCCCN1C)C(=O)N(COC(=O)CC(C)C)[C@H](C[C@@H](OC(C)=O)c1nc(C(=O)N[C@@H](Cc2ccccc2)C[C@H](C)C(=O)O)cs1)C(C)C [Tub D, tubulysin D, reference compound] | 0.36 nM | 0.014 nM | 0.015 nM | 0.51 nM | 0.15 nM | 0.1 nM | 0.051 nM | 0.032 nM | 0.037 nM | 0.013 nM | 0.0054 nM | 0.0048 nM | EC50 (HCT-15; HCT-15, 72 h incubation, read-out: EC50 HCT-15 (72 h)): 0.014 nM; EC50 (MDA-MB-231; MDA-MB-231, 72 h incubation, read-out: EC50 MDA-MB-231 (72 h)): 0.047 nM; EC50 (DMS53; DMS53, 72 h incubation, read-out: EC50 DMS53 (72 h)): 0.069 nM; EC50 (SK-BR3 [4]; SK-BR3, 72 h incubation, read-out: EC50 SK-BR3 (72 h)): 0.025 nM; EC50 (ZR-75; ZR-75, 72 h incubation, read-out: EC50 ZR-75 (72 h)): 0.034 nM
CC[C@H](C)[C@H](NC(=O)[C@H]1CCCCN1C)C(=O)N(C)[C@H](C[C@@H](OC(C)=O)c1nc(C(=O)N[C@@H](Cc2ccc(N)cc2)C(=O)O)cs1)C(C)C [Compound 56] | > 100 nM | > 100 nM | > 100 nM | > 100 nM | 29 nM | > 100 nM | > 100 nM | > 100 nM | > 100 nM | > 100 nM | > 100 nM | 24 nM | EC50 (A2058): > 100 nM; EC50 (SK-BR3 [6]): > 100 nM; EC50 (HCT-15; HCT-15, 48 h incubation, read-out: EC50 HCT-15 (48 h)): > 3000 nM; EC50 (MDA-MB-231; MDA-MB-231, 48 h incubation, read-out: EC50 MDA-MB-231 (48 h)): > 100 nM; EC50 (DMS53; DMS53, 48 h incubation, read-out: EC50 DMS53 (48 h)): > 100 nM; EC50 (SK-BR3 [4]; SK-BR3, 48 h incubation, read-out: EC50 SK-BR3 (48 h)): > 100 nM; EC50 (ZR-75; ZR-75, 48 h incubation, read-out: EC50 ZR-75 (48 h)): > 100 nM

Reference: patent publication US20130204033A1, “ANTIPROLIFERATIVE COMPOUNDS, CONJUGATES THEREOF, METHODS THEREFOR, AND USES THEREOF” (Medarex, Inc., priority 2009, published 2013)
